Reference: patent US9115169B2, “Method of treating tumors” (Lytix Biopharma AS, priority 2000, dated 2015)
Converted amounts (≈) assume the structure as drawn. Like-named read-outs stand apart in the source and are kept apart here. Where a SMILES comes first, the peptide text is derived from it. [ ]: non-standard residue; d: D form. The star is where a group is joined. Phe(4-tBu) = CC(C)(C)c1ccc(C[C@H](N)C(=O)O)cc1; Bip = N[C@@H](Cc1ccc(-c2ccccc2)cc1)C(=O)O; tBuAla = CC(C)(C)C[C@H](N)C(=O)O; Cha = N[C@@H](CC1CCCCC1)C(=O)O; Tle = CC(C)(C)[C@H](N)C(=O)O; βNA = c1ccc2cc(N*)ccc2c1; OBn = c1ccc(CO*)cc1

Experiments:
[1] = test system: Escherichia coli ATCC 25922
[2] = test system: Staphylococcus aureus ATCC 25923
[3] = test system: Escherichia coli ATCC 25922; test: microbe, parasite or virus in culture; settings: ATCC25922, read-out: MIC E. coli
[4] = test system: Staphylococcus aureus ATCC 25923; test: microbe, parasite or virus in culture; settings: ATCC25923, read-out: MIC S. aureus
[5] = test system: fresh human red blood cells; assay type: cell-based
Method: The hemolytic activities of the peptides were determined using fresh human red blood cells. 8 ml blood was taken from a healthy person. 4 ml blood was transferred to a polycarbonate tube containing heparin to a final concentration of 10 U/ml, and the remaining 4 ml blood was transferred to a glass tube containing EDTA with final concentration of 15% EDTA. The erythrocytes were isolated from heparin-treated blood by centrifugation in 1500 rpm for 10 min and washed three times with phosphate-buffered saline (PBS) to remove plasma and buffy coat. The cell pellet was resuspended in PBS to make the final volume of 4 ml. The peptide was diluted to a concentration of 2 mg/ml and 0.1 mg/ml. The peptide was further diluted to the concentrations as stated in Table 15. For each tube PBS was added first, then RBCs and peptide solutions. The hematocrit in the blood treated with EDTA was determined after 30 min with Sysmex K-1000, and the resuspended RBCS were diluted into 10% hematocrit. RBCs in PBS (1%) with and without peptides (Table 15) were incubated in a shaker at 37° for 1 hour and then centrifuged at 4000 rpm for 5 min. The supernatant were carefully transferred to new polycarbonate tubes and the absorbance of the supernatant was measured at 540 nm. […]

[6] = test system: Escherichia coli ATCC 25922; settings: for MBC E. coli: ATCC 25922; for bacteriostatic or bactericidal: in respect of E. coli, high MBC but low MIC indicates bacteriostatic
[7] = test system: Staphylococcus aureus ATCC 25923; settings: ATCC 25923
E. coli = test: Electronmicrograph of treated bacteria; assay type: cell-based; settings: FIG. 2
Excerpt: FIG. 1 is an electronmicrograph of normal (untreated) E. coli, and
FIG. 2 is an electronmicrograph of E. coli treated with one of the peptides described herein, WRWRWR [SEQ ID NO:1].

Compound	MIC E. coli ([1]; ATCC 25922) [µg/mL]	MIC MRSE (MRSE ATCC 27626; ATCC 27626) [µg/mL]	MIC MRSA (MRSA ATCC 33591; ATCC 33591) [µg/mL]	MIC P. aerug. (P. aeruginosa) [µg/mL]	MIC S. aureus ([2]; ATCC 25923)	other results
N=C(N)NCCC[C@H](NC(=O)[C@@H](N)Cc1ccccc1)C(=O)Nc1ccc2ccccc2c1 [FRβNA] (H-Phe-Arg-βNA)	–	–	–	–	–	Minimum inhibitory concentration E. coli ([1]; Table 9): >150 µg/mL; Minimum inhibitory concentration MRSE (MRSE ATCC 27626; Table 9): 5 µg/mL (≈ 11.2 µM); Minimum inhibitory concentration MRSA (MRSA ATCC 33591; Table 9): 12.5 µg/mL (≈ 28 µM); Minimum inhibitory concentration P. aeruginosa (P. aeruginosa; Table 9): >300 µg/mL; Minimum inhibitory concentration S. aureus ([2]; Table 9): 5 µg/mL (≈ 11.2 µM)
CC(C)(C)c1cc(C(C)(C)C)c2[nH]c(C(C)(C)C)c(C[C@H](N)C(=O)NCCCCN)c2c1 [H-Tbt-Dab-H]	–	–	–	–	–	MIC [3]: 35 µg/mL (≈ 79.1 µM); MIC [4]: 35 µg/mL (≈ 79.1 µM)
CC(C)(C)c1cc(C(C)(C)C)c2[nH]c(C(C)(C)C)c(C[C@H](N)C(=O)NCCN)c2c1 [H-Tbt-Dae-H]	–	–	–	–	–	MIC [3]: 15 µg/mL (≈ 36.2 µM); MIC [4]: 15 µg/mL (≈ 36.2 µM)
CC(C)(C)c1cc(C(C)(C)C)c2[nH]c(C(C)(C)C)c(C[C@H](N)C(=O)NCCCCCCN)c2c1 [H-Tbt-Dah-H]	–	–	–	–	–	MIC [3]: 15 µg/mL (≈ 31.9 µM); MIC [4]: 15 µg/mL (≈ 31.9 µM)
NCCCC[C@H](N)C(=O)O[C@@H](Cc1c[nH]c2ccccc12)C(=O)OCc1ccccc1 [Kψ(COO)WOBzl]	–	–	–	–	–	Minimum inhibitory concentration E. coli ([1]; ATCC 25922): 150 µg/mL (≈ 354 µM); Minimum inhibitory concentration MRSE (MRSE ATCC 27626; ATCC 27626): 37.5 µg/mL (≈ 88.5 µM); Minimum inhibitory concentration MRSA (MRSA ATCC 33591; ATCC 33591): 100 µg/mL (≈ 236 µM); Minimum inhibitory concentration P. aeruginosa (P. aeruginosa): 300 µg/mL (≈ 708 µM); Minimum inhibitory concentration S. aureus ([2]; ATCC 25923): 50 µg/mL (≈ 118 µM)
NCCCC[C@H](N)C(=O)O[C@H](Cc1c[nH]c2ccccc12)C(=O)OCc1ccccc1 [Kψ(COO)wOBzl]	–	–	–	–	–	Minimum inhibitory concentration E. coli ([1]; ATCC 25922): 150 µg/mL (≈ 354 µM); Minimum inhibitory concentration MRSE (MRSE ATCC 27626; ATCC 27626): 37.5 µg/mL (≈ 88.5 µM); Minimum inhibitory concentration MRSA (MRSA ATCC 33591; ATCC 33591): 100 µg/mL (≈ 236 µM); Minimum inhibitory concentration P. aeruginosa (P. aeruginosa): 300 µg/mL (≈ 708 µM); Minimum inhibitory concentration S. aureus ([2]; ATCC 25923): 50 µg/mL (≈ 118 µM)
COC(=O)[C@H](CCCNC(=N)N)NC(=O)[C@H](Cc1c(C(C)(C)C)[nH]c2c(C(C)(C)C)cc(C(C)(C)C)cc12)NC(=O)[C@@H](N)CCCNC(=N)N [RTbtR OMe, H-Arg-Tbt-Arg-OMe]	25 (≈ 35.8 µM)	–	–	–	5 (5) μg/ml	haemolysis EC50 [5]: 720 µg/mL; MBC E. coli [6]: 50 µg/mL (≈ 71.5 µM); bacteriostatic or bactericidal [6]: bactericidal; MBC S. aureus [7]: 5 (5) μg/ml
N=C(N)NCCC[C@H](NC(=O)[C@H](Cc1c[nH]c2ccccc12)NC(=O)[C@H](CCCNC(=N)N)NC(=O)[C@H](Cc1c[nH]c2ccccc12)NC(=O)[C@H](CCCNC(=N)N)NC(=O)[C@@H](N)Cc1c[nH]c2ccccc12)C(N)=O [WRWRWR] (H-WRWRWR-NH2)	7.5 (≈ 7.18 µM)	–	–	–	7.5 µg/mL (≈ 7.18 µM)	MBC E. coli [6]: 15 µg/mL (≈ 14.4 µM); appearance of treated E. coli in electronmicrograph (E. coli): void of cytoplasmic matter and their cell membranes (as well as cell wall components) are destroyed; MBC S. aureus [7]: 10 µg/mL (≈ 9.58 µM)

More lines, main results first:

MIC E. coli ([1]; ATCC 25922) [µg/mL]	MIC MRSE (MRSE ATCC 27626; ATCC 27626) [µg/mL]	MIC MRSA (MRSA ATCC 33591; ATCC 33591) [µg/mL]	MIC P. aerug. (P. aeruginosa) [µg/mL]	MIC S. aureus ([2]; ATCC 25923)	Compound	other results
150.0 (≈ 308 µM)	5.0 (≈ 10.3 µM)	5.0 (≈ 10.3 µM)	100.0 (≈ 205 µM)	5.0 µg/mL (≈ 10.3 µM)	N=C(N)NCCC[C@H](NC(=O)[C@@H](N)Cc1ccc(-c2ccccc2)cc1)C(=O)OCc1ccccc1 [BipR-OBzl] (H-[Bip]-Arg-OBn; N-terminus assumed)	–
>300.0	50.0 (≈ 122 µM)	50.0 (≈ 122 µM)	>300.0	150.0 µg/mL (≈ 365 µM)	COC(=O)[C@H](CCCNC(=N)N)NC(=O)[C@@H](N)Cc1ccc(-c2ccccc2)cc1 [BipR-OMe] (H-[Bip]-Arg-OMe; N-terminus assumed)	–
300.0 (≈ 718 µM)	25.0 (≈ 59.9 µM)	25 to 37.5	>300.0	50 to 100 µg/mL	N=C(N)NCCC[C@H](NC(=O)[C@@H](N)CC1CCCCC1)C(=O)OCc1ccccc1 [ChxAR-OBzl] (H-[Cha]-Arg-OBn; N-terminus assumed)	–
–	–	–	>300.0	–	N=C(N)NCCC[C@H](NC(=O)[C@@H](N)Cc1ccccc1)C(=O)OCc1ccccc1 [FR-Obzl] (H-Phe-Arg-OBn; N-terminus assumed)	–
–	4.0 (≈ 7.37 µM)	4.0 (≈ 7.37 µM)	–	–	COC(=O)[C@H](CCCNC(=N)N)NC(=O)[C@@H](N)Cc1c(C(C)(C)C)[nH]c2c(C(C)(C)C)cc(C(C)(C)C)cc12 [TbtR OMe, H-Tbt-Arg-OMe]	haemolysis EC50 [5]: 360 µg/mL; MBC E. coli [6]: 200 µg/mL (≈ 368 µM); bacteriostatic or bactericidal [6]: bacteriostatic; MBC S. aureus [7]: 10 (10) μg/ml
–	50.0 (≈ 111 µM)	37.5 (≈ 83.2 µM)	>300.0	–	N=C(N)NCCC[C@H](NC(=O)[C@@H](N)Cc1c[nH]c2ccccc12)C(=O)OCc1ccccc1 [WR-OBzl] (H-Trp-Arg-OBn; N-terminus assumed)	–
>300.0	100.0 (≈ 255 µM)	150 to 200	>300.0	300.0 µg/mL (≈ 766 µM)	CC(C)(C)C[C@H](N)C(=O)N[C@@H](CCCNC(=N)N)C(=O)OCc1ccccc1 [tBuAR-OBzl] (H-[tBuAla]-Arg-OBn; N-terminus assumed)	–
200.0 (≈ 428 µM)	5.0 (≈ 10.7 µM)	12.5 to 25	100.0 (≈ 214 µM)	25.0 µg/mL (≈ 53.5 µM)	CC(C)(C)c1ccc(C[C@H](N)C(=O)N[C@@H](CCCNC(=N)N)C(=O)OCc2ccccc2)cc1 [tBuFR-OBzl] (H-[Phe(4-tBu)]-Arg-OBn; N-terminus assumed)	–
>300.0	100.0 (≈ 255 µM)	100.0 (≈ 255 µM)	>300.0	>300.0 µg/mL	COC(=O)[C@H](CCCNC(=N)N)NC(=O)[C@@H](N)Cc1ccc(C(C)(C)C)cc1 [tBuFR-OMe] (H-[Phe(4-tBu)]-Arg-OMe; N-terminus assumed)	–
>300.0	150.0 (≈ 397 µM)	100.0 (≈ 265 µM)	>300.0	>300.0 µg/mL	CC(C)(C)[C@H](N)C(=O)N[C@@H](CCCNC(=N)N)C(=O)OCc1ccccc1 [tBuGR-OBzl] (H-[Tle]-Arg-OBn; N-terminus assumed)	–
